For test [1], the system named is primary human mesenchymal stem cells (hMSCs). The test can be described thus: Tenocyte differentiation screening in hMSCs (SCXA-positive cells, 4 days). The test is classed as cell-based. The conditions noted are these: 96 h, fold change over DMSO. The text has this:
Representative compounds were screened using primary human mesenchymal stem cells (hMSCs) to determine their ability to induce tenocyte differentiation (process by which tendon is developed).
Primary human mesenchymal stem cells (hMSCs) were purchased from Lonza (Walkersville, Md.) and expanded in Mesenchymal Stem Cell Growth Media (Lonza). Cells between passage 3 and 6 were used for the experiments.
Cells were fixed using 4% formaldehyde (Electron Microscopy Sciences), and stained with anti-Sclerasis (anti-SCXA) antibodies (Abgent, San Diego, Calif.) [Webb S., et. al., Retinoic acid receptor signaling preserves tendon stem cell characteristics and prevents spontaneous differentiation in vitro, Stem Cell Research & Therapy 2016, 7:45] overnight at 4° C. […] Number of cells positive for SCXA in each well was quantified using the Celllnsight CX5. Data was normalized to the average of 12 DMSO treated wells on the same plate using Dotmatics Studies module. The normalized averages (fold change over DMSO) of 3 replicate wells for each compound concentration were calculated. Due to solubility limitations of some of the compounds, values for higher doses were manually corrected and curve fitting and EC50 determinations were performed using Dotmatics Studies.
EC50 for each compound is reported.

Test [2] concerns Wnt-responsive promoter driving firefly luciferase in SW480 cells. The test can be described thus: Wnt reporter (SP5 promoter-luciferase) screening assay in SW480 cells. Format: cell-based. To be noted: Homo sapiens, 24-40 h, top concentration ten micromolar. The text has this:
Another screening assay for Wnt activity is described as follows. Reporter cell lines can be generated by stably transducing cells of cancer cell lines (e.g., colon cancer) with a lentiviral construct that include a Wnt-responsive promoter driving expression of the firefly luciferase gene.
Lentiviral constructs can be made in which the SP5 promoter, a promoter having eight TCF/LEF binding sites derived from the SP5 promoter, is linked upstream of the firefly luciferase gene. The lentiviral constructs can also include a hygromycin resistance gene as a selectable marker. The SP5 promoter construct can be used to transduce SW480 cells, a colon cancer cell line having a mutated APC gene that generates a truncated APC protein, leading to de-regulated accumulation of β-catenin.
Cultured SW480 cells bearing a reporter construct can be distributed at approximately 10,000 cells per well into 96 well or 384 well plates. Compounds from a small molecule compound library can then be added to the wells in half-log dilutions using a ten micromolar top concentration. A series of control wells for each cell type receive only buffer and compound solvent. Twenty-four to forty hours after the addition of compound, reporter activity for luciferase can be assayed, for example, by addition of the BrightGlo luminescence reagent (Promega) and the Victor3 plate reader (Perkin Elmer). Readings can be normalized to DMSO only treated cells, and normalized activities can then be used in the EC50 calculations.

A value given as a limit tells only on which side of the number the result lay.

One may read the EC50 as the concentration at which the effect is half-maximal. A low value points to an effect from little substance. Take `O=C(Nc1cccnc1)c1n[nH]c2ccc(-c3cncc(Cc4ccccc4)c3)cc12` [compound 55, 5-(5-Benzylpyridin-3-yl)-N-(pyridin-3-yl)-1H-indazole-3-carboxamide]: the EC50 in test [1] is greater than 100000 nM; in test [2], 44 nM.

On to `O=C(NC1CCCCC1)c1cncc(-c2ccc3[nH]nc(C(=O)Nc4cccnc4)c3c2)c1` [compound 59, 5-(5-(Cyclohexylcarbamoyl)pyridin-3-yl)-N-(pyridin-3-yl)-1H-indazole-3-carboxamide], for which the EC50 in test [1] was found to be 14600 nM; in test [2], 3100 nM.

For the molecule `O=C(NCc1cccnc1)c1n[nH]c2ccc(-c3cncc(CN4CCCCC4)c3)cc12` [compound 76, 5-(5-(Piperidin-1-ylmethyl)pyridin-3-yl)-N-(pyridin-3-ylmethyl)-1H-indazole-3-carboxamide], the figures for the EC50 in test [1] and in test [2] were 2670 nM and 850 nM, respectively.

Take `O=C(Nc1ccc(Oc2ccc(F)cc2)nc1)c1n[nH]c2ccc(-c3cccnc3)cc12` [compound 20, N-(6-(4-Fluorophenoxy)pyridin-3-yl)-5-(pyridin-3-yl)-1H-indazole-3-carboxamide]: the EC50 in test [1] was found to be 12000 nM; in test [2], 118 nM.

Regarding `O=C(Nc1cccnc1)c1n[nH]c2ccc(-c3cncc(C(F)(F)F)c3)cc12` [compound 16, N-(pyridin-3-yl)-5-(5-(trifluoromethyl)pyridin-yl)-1H-indazole-3-carboxamide], the EC50 in test [1] is 35800 nM; in test [2] it was no less than 10000 nM.

`CN(C)Cc1cncc(-c2ccc3[nH]nc(C(=O)Nc4ccc(Oc5ccccc5F)nc4)c3c2)c1` [compound 36, 5-(5-((Dimethylamino)methyl)pyridin-3-yl)-N-(6-(2-fluorophenoxy)pyridin-3-yl)-1H-indazole-3-carboxamide]: the EC50 in test [1] was greater than 100000 nM; in test [2], 275 nM.

Take `Cn1nc(NC(=O)c2n[nH]c3ccc(-c4cccnc4)cc23)cc1C(F)(F)F` [compound 37, N-(1-Methyl-5-(trifluoromethyl)-1H-pyrazol-3-yl)-5-(pyridin-3-yl)-1H-indazole-3-carboxamide]: the results for the EC50 in test [1] and in test [2] were greater than 100000 nM and 1120 nM, respectively.

In the case of `O=C(Nc1ccc(N2CCCC2)nc1)c1n[nH]c2ccc(-c3cncc(CN4CCC(F)(F)C4)c3)cc12` [compound 183, 5-(5-((3,3-Difluoropyrrolidin-1-yl)methyl)pyridin-3-yl)-N-(6-(pyrrolidin-1-yl)pyridin-3-yl)-1H-indazole-3-carboxamide], the values for the EC50 in test [1] and in test [2] were greater than 100000 nM and 49 nM, respectively.

For the molecule `O=C(Nc1ccc(-c2ccccc2)nc1)c1n[nH]c2ccc(-c3cncc(CN4CCCCC4)c3)cc12` [compound 65, N-(6-Phenylpyridin-3-yl)-5-(5-(piperidin-1-ylmethyl)pyridin-3-yl)-1H-indazole-3-carboxamide], the EC50 was greater than 100000 nM in test [1] and 101 nM in test [2].

As for `O=C(Nc1cncc(-c2cccc(F)c2)c1)c1n[nH]c2ccc(-c3cccnc3)cc12` [compound 9, N-(5-(3-Fluorophenyl)pyridin-3-yl)-5-(pyridin-3-yl)-1H-indazole-3-carboxamide], the results for the EC50 in test [1] and in test [2] were greater than 100000 nM and no less than 10000 nM, respectively.

As to `O=C(Nc1ccc(C(=O)N2CCCC2)nc1)c1n[nH]c2ccc(-c3cncc(CN4CCCCC4)c3)cc12` [compound 179, 5-(5-(Piperidin-1-ylmethyl)pyridin-3-yl)-N-(6-(pyrrolidine-1-carbonyl)pyridin-3-yl)-1H-indazole-3-carboxamide], the figures for the EC50 in test [1] and in test [2] were 1120 nM and 30 nM, respectively.

For the molecule `CN1CCN(Cc2cncc(NC(=O)c3n[nH]c4ccc(-c5cncc(CN6CCCCC6)c5)cc34)c2)CC1` [compound 124, N-(5-((4-Methylpiperazin-1-yl)methyl)pyridin-3-yl)-5-(5-(piperidin-1-ylmethyl)pyridin-3-yl)-1H-indazole-3-carboxamide], the values for the concentration for a half-maximal effect (EC50) in test [1] and in test [2] were greater than 100000 nM and 67 nM, respectively.

For `CN(C)Cc1cncc(NC(=O)c2n[nH]c3ccc(-c4cccnc4)cc23)c1` [compound 7, N-(5-((Dimethylamino)methyl)pyridin-3-yl)-5-(pyridin-3-yl)-1H-indazole-3-carboxamide], the EC50 in test [1] came out at 6940 nM; in test [2] it was 110 nM.

With `O=C(Nc1ccc(N2CCNCC2)nc1)c1n[nH]c2ccc(-c3cncc(CN4CCCCC4)c3)cc12` [compound 177, N-(6-(Piperazin-1-yl)pyridin-3-yl)-5-(5-(piperidin-1-ylmethyl)pyridin-3-yl)-1H-indazole-3-carboxamide], the figures for the EC50 in test [1] and in test [2] were 5170 nM and 183 nM, respectively.

Take `O=C(NC1CCOCC1)c1n[nH]c2ccc(-c3cncc(CN4CCCCC4)c3)cc12` [compound 163, 5-(5-(Piperidin-1-ylmethyl)pyridin-3-yl)-N-(tetrahydro-2H-pyran-4-yl)-1H-indazole-3-carboxamide]: the values for the EC50 in test [1] and in test [2] were 5090 nM and 15400 nM, respectively.

For `CN1CCN(c2ccc(NC(=O)c3n[nH]c4ccc(-c5cncc(NC(=O)C6CC6)c5)cc34)cn2)CC1` [compound 38, 5-(5-(Cyclopropanecarboxamido)pyridin-3-yl)-N-(6-(4-methylpiperazin-1-yl)pyridin-3-yl)-1H-indazole-3-carboxamide], the EC50 came out at 2840 nM in test [1] and 120 nM in test [2].

For `N#Cc1ccc(NC(=O)c2n[nH]c3ccc(-c4cncc(CN5CCCCC5)c4)cc23)cn1` [compound 62, N-(6-Cyanopyridin-3-yl)-5-(5-(piperidin-1-ylmethyl)pyridin-3-yl)-1H-indazole-3-carboxamide], the EC50 is greater than 100000 nM in test [1] and 16 nM in test [2].

With `NC(=O)c1ccc(NC(=O)c2n[nH]c3ccc(-c4cncc(CN5CCCCC5)c4)cc23)cn1` [compound 180, N-(6-carbamoylpyridin-3-yl)-5-(5-(piperidin-1-ylmethyl)pyridin-3-yl)-1H-indazole-3-carboxamide], the EC50 in test [1] is greater than 100000 nM; in test [2] it was 13 nM.

As for `CN(C)Cc1cncc(NC(=O)c2n[nH]c3ccc(-c4cncc(CN5CCCC5)c4)cc23)c1` [compound 106, N-(5-((Dimethylamino)methyl)pyridin-3-yl)-5-(5-(pyrrolidin-1-ylmethyl)pyridin-3-yl)-1H-indazole-3-carboxamide], the EC50 in test [1] was 5540 nM; in test [2], 33 nM.

In the case of `O=C(Nc1cccnc1)c1n[nH]c2ccc(-c3cncc(CN4CCCC4)c3)cc12` [compound 43, N-(Pyridin-3-yl)-5-(5-(pyrrolidin-1-ylmethyl)pyridin-3-yl)-1H-indazole-3-carboxamide], the EC50 was found to be 5020 nM in test [1] and 63 nM in test [2].

As for `O=C(Nc1cccnc1)c1n[nH]c2ccc(-c3cc(F)cc(CN4CCCCC4)c3)cc12` [compound 67, 5-(3-Fluoro-5-(piperidin-1-ylmethyl)phenyl)-N-(pyridin-3-yl)-1H-indazole-3-carboxamide], the EC50 in test [1] is greater than 100000 nM; in test [2] it was no less than 10000 nM.

Regarding `O=C(Nc1ccc(N2CCCCC2)nc1)c1n[nH]c2ccc(-c3cncc(CN4CCCCC4)c3)cc12` [compound 126, N-(6-(Piperidin-1-yl)pyridin-3-yl)-5-(5-(piperidin-1-ylmethyl)pyridin-3-yl)-1H-indazole-3-carboxamide], the EC50 in test [1] was determined as 5540 nM; in test [2], 22 nM.

In the case of `O=C(Nc1ccnnc1)c1n[nH]c2ccc(-c3cccnc3)cc12` [compound 14, N-(Pyridazin-4-yl)-5-(pyridin-3-yl)-1H-indazole-3-carboxamide], the EC50 in test [1] is 50400 nM; in test [2] it was 106 nM.

With `CN(C)Cc1cncc(-c2ccc3[nH]nc(C(=O)Nc4ccc(N5CCCC5)nc4)c3c2)c1` [compound 190, 5-(5-((Dimethylamino)methyl)pyridin-3-yl)-N-(6-(pyrrolidin-1-yl)pyridin-3-yl)-1H-indazole-3-carboxamide], the EC50 in test [1] is greater than 100000 nM; in test [2], 1200 nM.

Turning to `O=C(Nc1ccc(C(F)(F)F)nc1)c1n[nH]c2ccc(-c3cncc(F)c3)cc12` [compound 2, 5-(5-fluoropyridin-3-yl)-N-(6-(trifluoromethyl)pyridin-3-yl)-1H-indazole-3-carboxamide], the results for the EC50 in test [1] and in test [2] were greater than 100000 nM and 5000 nM, respectively.

Turning to `CN(C)Cc1cncc(-c2ccc3[nH]nc(C(=O)Nc4ccc(C(F)(F)F)nc4)c3c2)c1` [compound 26, 5-(5-((Dimethylamino)methyl)pyridin-3-yl)-N-(6-(trifluoromethyl)pyridin-3-yl)-1H-indazole-3-carboxamide], the results for the EC50 in test [1] and in test [2] were greater than 100000 nM and 210 nM, respectively.
